Source: patent US9351998B2, “Methods of nourishing animals” (MariCal, Inc., priority 2008, dated 2016)

System: avian CaSR
Test: FURA2 ratio imaging fluorimetry of HEK cells stably expressing avian (chicken) CaSR
Format: cell-based
Text: All methods and equipment utilized to perform experiments on HEK cells have been reported previously (Gama, L. and Breitwieser, G. E. 1998. A carboxyl-terminal domain controls the cooperativity for extracellular Ca2+ activation of the human calcium sensing receptor. A study with receptor-green fluorescent protein fusions. J. Biol. Chem. 273, 29712-29718; Bai, M., Quinn, S., Trivedi, S., Kifor, 0., Pearce, S. H., Pollak, M. R., Krapcho, K., Hebert, S. C. and Brown, E. M. 1996. Expression and characterization of inactivating and activating mutations in the human Ca2+o-sensing receptor. J. Biol. Chem. 271, 19537-19544). Untransfected HEK cells or, alternatively, cells transfected and expressing CaSR protein were cultured in Dulbecco's Modified Eagle Medium containing 10% fetal bovine serum and 1% penicillin-streptomycin in 75 cm^2 flasks until they reached confluence. Media was removed from the flasks and cells were loaded by exposure to Loading Buffer (125 mM NaCl, 4 mM KCl, 1.0 mMCaCl2, 1.0 mM MgCl2, 1 mM NaH2PO4, 20 mM HEPES, 1 gm/liter bovine serum albumin, and 1 gm/l glucose, pH ˜7.4, osmolality ˜285) containing 4.1 micromolar FURA2-AM (Molecular Probes Inc. Eugene, Oreg.) for 2 hr. Cells were then scraped from the surface of the flask using a standard cell scraper (Costar 3010, Corning Inc.). Cells were then pelleted from the suspension by low speed centrifugation to remove loading buffer and rinsed twice to remove extracellular FURA2 dye by two sequential suspensions and pelleting steps using low speed centrifugation. Immediately prior to the start of the experiment, cells were resuspended in various experimental buffers for analyses as described below. The Standard Experimental Buffer used for many studies was composed of: 125 mM NaCl, 4 mM KCl, 0.5 mMCaCl2, 0.5 mM MgCl2, 20 mM HEPES, 1 g/l glucose, pH ˜7.4, osmolality ˜285. All other buffers were variations on this basic composition where specific components within the Standard Experimental Buffer were varied while the remaining components were held constant.
Cell suspensions consisting of a total volume of 3 ml were analyzed in a PTI fluorimeter (PTI Model 814 Photomultiplier Detection System equipped with SC-500 Shutter Controller and PTI Driver and Analysis Software) within approximately 20 min after exposure to experimental buffers. Data was acquired using standard ratio image analysis as described previously using a data acquisition rate of 1.3 sec. for 500 or 1000 second intervals.
In selected experiments, the detergent Triton X-100 was added in order to lyse the cells and quantify differences in FURA2 ratio fluorescence. Triton X-100 was added to the cells to obtain a maximal fluorescence signal from the FURA2 for purposes of quantification.
The ability of the CaSR modulator MC0100 to potentiate the response of avian and mammalian CaSRs to the chelated mineral amino acid complex, ZnPro, was tested. For avian CaSR experiments, three individual aliquots from a single pool of HEK cells that stably express the recombinant avian CaSR protein were used for ratio imaging fluorimetry assays of CaSR activation generally as described in Example 6 herein. […] In all aliquots, the detergent Triton X-100 was added as the last addition to lyse the cells (FIG. 29A).
From a single pool of HEK cells stably expressing the avian CaSR, aliquots of cells were removed and analyzed using ratio imaging fluorimetry generally as described in Example 6 herein. After a standard addition of Ca++ to a final concentration of 2.5 mM, either 0.0025%, 0.025% or 0.25% Zinc Proteinate was added followed by a second addition of Ca++ to a final concentration of 7.5 mM. Subsequently, an aliquot of the detergent Triton X-100 was added to lyse the cells. […] The magnitude of the subsequent CaSR response to Ca++ was reduced via increasing Zn Proteinate stimulation.
Fluorimetry analysis was performed on HEK cells expressing the recombinant chicken CaSR protein generally as described in Example 6 herein.

## COc1cccc([C@@H](C)NCCCc2ccccc2)c1 [MC0100]
1 micromolar MC0100, buffer 1.5 mM Ca2+
  effect of prior modulator on CaSR response to 0.25% Mintrex Zn: potentiated the response
MC0100 added before ZnPro
  effect of modulator on CaSR response to ZnPro: potentiates the response
MC0100 at final 1 micromolar, buffer 1.5 mM Ca2+
  CaSR response to the modulator itself: yielded a response
After addition of 2.5 mM Ca++ (FIG. 36)
  CaSR response to stepwise additions: increased responses
